Each structure is given as a SMILES string. Activity calls are given as the source filed them. Some results are limits rather than exact numbers.

The values below come from ChEMBL document CHEMBL1201862, “PubChem BioAssay data set” (2004).

Data set [1] concerns the target Cytochrome P450 2C19 (Homo sapiens, UniProt P33261). The experiment in a line: Cytochrome panel assay with activity outcomes. Panel member name: p450-cyp2c19 Compounds with AC50 equal or less than 10 uM are considered active. Format: functional.
The target of data set [2] is Cytochrome P450 2C9 (Homo sapiens, UniProt P11712).
The target of data set [3] is T1, Cytochrome P450 1A2 (Homo sapiens, UniProt P05177).
T1 sequence (P05177 whole entry): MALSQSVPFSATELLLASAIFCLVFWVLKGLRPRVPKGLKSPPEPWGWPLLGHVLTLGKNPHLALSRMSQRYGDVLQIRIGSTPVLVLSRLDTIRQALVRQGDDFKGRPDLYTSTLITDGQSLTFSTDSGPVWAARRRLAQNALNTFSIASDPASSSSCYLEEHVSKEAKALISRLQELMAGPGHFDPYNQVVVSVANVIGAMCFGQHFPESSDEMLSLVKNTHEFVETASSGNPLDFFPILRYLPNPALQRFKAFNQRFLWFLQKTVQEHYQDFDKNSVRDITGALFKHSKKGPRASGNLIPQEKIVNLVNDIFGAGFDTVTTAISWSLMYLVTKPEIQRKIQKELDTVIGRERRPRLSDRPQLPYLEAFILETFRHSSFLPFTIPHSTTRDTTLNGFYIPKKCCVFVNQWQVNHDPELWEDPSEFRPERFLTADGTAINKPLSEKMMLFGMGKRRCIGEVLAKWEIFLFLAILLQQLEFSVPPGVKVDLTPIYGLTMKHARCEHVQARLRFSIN

Data set [4] has as its target T2, Rac GTPase-activating protein 1 (Homo sapiens, UniProt Q9H0H5).
T2 sequence (Q9H0H5 whole entry): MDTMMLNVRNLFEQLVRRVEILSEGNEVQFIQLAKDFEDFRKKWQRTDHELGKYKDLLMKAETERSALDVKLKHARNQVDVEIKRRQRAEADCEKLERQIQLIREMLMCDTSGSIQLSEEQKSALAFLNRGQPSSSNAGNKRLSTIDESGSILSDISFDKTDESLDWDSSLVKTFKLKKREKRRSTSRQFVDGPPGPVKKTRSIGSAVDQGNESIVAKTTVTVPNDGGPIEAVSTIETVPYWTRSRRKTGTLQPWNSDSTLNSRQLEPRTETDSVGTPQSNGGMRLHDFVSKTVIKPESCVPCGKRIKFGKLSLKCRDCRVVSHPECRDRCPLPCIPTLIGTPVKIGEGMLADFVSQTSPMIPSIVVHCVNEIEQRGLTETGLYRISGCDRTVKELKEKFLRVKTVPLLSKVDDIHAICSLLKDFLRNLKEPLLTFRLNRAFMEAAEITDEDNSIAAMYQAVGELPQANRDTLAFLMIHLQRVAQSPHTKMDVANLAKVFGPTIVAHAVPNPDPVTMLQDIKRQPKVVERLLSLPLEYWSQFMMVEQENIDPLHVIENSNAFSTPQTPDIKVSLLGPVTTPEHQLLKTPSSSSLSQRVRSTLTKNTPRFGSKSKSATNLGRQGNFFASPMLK
The experiment in a line: MgcRacGAP GTPase-activating activity inhibitors, confirmation, biochemical, ADP Hunter fluorescence, primary and confirmatory (AID 624330). Format: functional.

The target in data set [5] is Cytochrome P450 2D6 (Homo sapiens, UniProt P10635).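 Note: CYP2D6 member of a cytochrome P450 panel assay.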
Data set [6] deals with T3, Corticotropin-releasing factor receptor 2/Corticotropin-releasing factor-binding protein (Homo sapiens, UniProt P24387+Q13324).
T3 sequence (Q13324 whole entry): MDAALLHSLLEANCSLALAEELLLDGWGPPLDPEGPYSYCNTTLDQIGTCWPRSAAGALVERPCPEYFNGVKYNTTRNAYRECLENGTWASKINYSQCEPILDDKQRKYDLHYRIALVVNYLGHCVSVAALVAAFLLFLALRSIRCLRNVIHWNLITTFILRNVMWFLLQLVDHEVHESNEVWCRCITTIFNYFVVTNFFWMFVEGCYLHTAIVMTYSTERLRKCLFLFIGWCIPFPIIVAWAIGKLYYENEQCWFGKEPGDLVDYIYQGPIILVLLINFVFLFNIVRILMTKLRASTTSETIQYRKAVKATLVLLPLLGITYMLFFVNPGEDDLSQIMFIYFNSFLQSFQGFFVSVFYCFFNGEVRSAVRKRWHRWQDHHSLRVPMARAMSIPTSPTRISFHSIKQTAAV
T3 sequence (P24387 whole entry): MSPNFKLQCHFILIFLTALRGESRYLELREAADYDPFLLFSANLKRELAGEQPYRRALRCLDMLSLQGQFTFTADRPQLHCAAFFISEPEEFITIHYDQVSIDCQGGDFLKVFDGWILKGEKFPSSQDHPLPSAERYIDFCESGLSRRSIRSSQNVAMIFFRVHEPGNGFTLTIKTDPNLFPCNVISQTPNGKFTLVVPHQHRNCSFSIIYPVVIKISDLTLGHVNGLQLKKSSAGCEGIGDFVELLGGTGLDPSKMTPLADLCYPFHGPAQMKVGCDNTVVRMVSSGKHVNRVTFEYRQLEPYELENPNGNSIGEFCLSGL
The data set is described as follows: activators of CRF receptor 2 with binding protein – uHTS hits, confirmation (AID 602473). As to conditions: read-out: EC50_Mean. Format: functional.

Data set [7] deals with T3, Corticotropin-releasing factor receptor 2/Corticotropin-releasing factor-binding protein. The experiment in a line: Dose Response confirmation of uHTS hits for small molecule antagonists of the CRF-binding protein and CRF-R2 receptor complex. Format: functional. The following applies: read-out: IC50_Mean.
The target of data set [8] is FAD-linked sulfhydryl oxidase ALR (Homo sapiens, UniProt P55789). The experiment in a line: inhibitors of human ALR sulfhydryl oxidase, dose response, biochemical, H2O2 detection, luminescence, cherry-pick (AID 493248).
The target in data set [9] is T4, Heat shock factor protein 1 (Mus musculus, UniProt P38532).
T4 sequence (P38532 whole entry): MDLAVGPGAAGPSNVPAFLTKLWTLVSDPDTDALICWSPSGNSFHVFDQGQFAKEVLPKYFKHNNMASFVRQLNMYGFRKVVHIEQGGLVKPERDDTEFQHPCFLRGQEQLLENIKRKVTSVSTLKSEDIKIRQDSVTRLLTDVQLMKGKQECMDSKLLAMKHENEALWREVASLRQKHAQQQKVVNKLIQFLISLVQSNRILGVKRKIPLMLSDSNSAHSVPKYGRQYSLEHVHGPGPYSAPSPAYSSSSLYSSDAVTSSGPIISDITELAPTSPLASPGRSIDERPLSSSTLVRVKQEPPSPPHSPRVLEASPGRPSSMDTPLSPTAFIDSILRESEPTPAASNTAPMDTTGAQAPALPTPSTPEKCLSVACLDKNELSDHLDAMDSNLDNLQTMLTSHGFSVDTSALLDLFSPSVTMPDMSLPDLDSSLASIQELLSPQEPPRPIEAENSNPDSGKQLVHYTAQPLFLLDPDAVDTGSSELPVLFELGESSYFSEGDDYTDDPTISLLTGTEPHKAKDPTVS
The data set is described as follows: HSF1 potentiators in luciferase reporter cells, confirmation, cell-based, NIH3T3, luminescence, dose retest (AID 435004).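 Note: stress induced by proteasome inhibitor MG132 added 30 min after compound; luciferase reporter driven by HSF1 response element in NIH3T3 cells; actives raise luminescence as potentiators of the MG132 stress response.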 Type of data set: functional. A general note: Reporter assays use an easily measured gene product as a stand-in for the process of interest.

Cytochrome P450 2C9, sequence (P11712 whole entry): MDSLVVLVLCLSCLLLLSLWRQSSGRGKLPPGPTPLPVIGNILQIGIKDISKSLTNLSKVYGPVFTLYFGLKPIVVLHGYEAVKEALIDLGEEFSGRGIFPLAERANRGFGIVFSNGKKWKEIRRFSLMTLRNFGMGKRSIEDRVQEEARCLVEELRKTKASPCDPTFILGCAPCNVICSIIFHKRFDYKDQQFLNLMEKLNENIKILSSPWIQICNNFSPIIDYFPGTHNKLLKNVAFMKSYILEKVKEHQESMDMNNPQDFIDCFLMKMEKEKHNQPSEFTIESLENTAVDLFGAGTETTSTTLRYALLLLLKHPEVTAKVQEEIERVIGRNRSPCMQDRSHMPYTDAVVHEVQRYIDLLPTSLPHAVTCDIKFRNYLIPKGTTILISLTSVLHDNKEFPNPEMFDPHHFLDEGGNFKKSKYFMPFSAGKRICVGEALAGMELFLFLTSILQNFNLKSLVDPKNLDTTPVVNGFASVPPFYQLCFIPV
Cytochrome P450 2C19, sequence (P33261 whole entry): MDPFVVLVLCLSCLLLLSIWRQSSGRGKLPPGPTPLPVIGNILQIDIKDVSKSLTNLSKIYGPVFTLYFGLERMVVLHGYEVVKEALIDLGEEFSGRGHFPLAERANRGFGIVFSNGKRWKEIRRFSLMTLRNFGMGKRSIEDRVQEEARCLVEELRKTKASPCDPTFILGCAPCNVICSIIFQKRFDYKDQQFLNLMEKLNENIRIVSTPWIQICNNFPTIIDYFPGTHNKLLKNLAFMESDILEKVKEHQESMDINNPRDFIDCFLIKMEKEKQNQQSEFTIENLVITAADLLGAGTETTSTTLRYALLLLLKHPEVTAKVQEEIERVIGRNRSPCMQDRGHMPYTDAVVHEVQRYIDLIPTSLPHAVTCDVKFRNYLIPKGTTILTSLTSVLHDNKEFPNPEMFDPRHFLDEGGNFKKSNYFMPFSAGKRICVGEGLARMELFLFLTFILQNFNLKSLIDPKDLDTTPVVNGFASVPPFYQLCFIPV
Cytochrome P450 2D6, sequence (P10635 whole entry): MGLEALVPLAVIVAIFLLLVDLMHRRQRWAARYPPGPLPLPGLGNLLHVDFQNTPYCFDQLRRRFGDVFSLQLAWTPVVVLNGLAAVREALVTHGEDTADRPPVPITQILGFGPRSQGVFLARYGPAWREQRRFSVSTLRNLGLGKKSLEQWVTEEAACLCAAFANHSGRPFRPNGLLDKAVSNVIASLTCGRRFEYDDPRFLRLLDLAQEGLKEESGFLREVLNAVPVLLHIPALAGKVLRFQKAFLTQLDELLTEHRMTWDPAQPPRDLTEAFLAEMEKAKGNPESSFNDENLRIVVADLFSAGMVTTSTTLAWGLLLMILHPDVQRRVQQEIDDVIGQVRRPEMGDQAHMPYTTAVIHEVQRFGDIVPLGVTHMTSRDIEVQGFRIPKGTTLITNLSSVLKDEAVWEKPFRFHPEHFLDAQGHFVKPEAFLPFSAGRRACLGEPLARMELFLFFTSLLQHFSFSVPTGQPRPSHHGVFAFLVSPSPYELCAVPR
FAD-linked sulfhydryl oxidase ALR, sequence (P55789 whole entry): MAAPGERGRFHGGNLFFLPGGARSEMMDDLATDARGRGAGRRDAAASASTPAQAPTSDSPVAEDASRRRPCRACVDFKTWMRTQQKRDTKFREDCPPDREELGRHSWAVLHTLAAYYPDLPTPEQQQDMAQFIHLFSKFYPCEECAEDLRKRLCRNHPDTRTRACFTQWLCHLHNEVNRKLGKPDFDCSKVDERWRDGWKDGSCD

For orientation: AC50 means the midpoint of the concentration-response curve, whichever way the signal moves. Turning to `Oc1c2c(nc3c(-c4ccccc4)cnn13)CCC2`, the AC50 is 31.6 µM (inconclusive) in data set [1] (read-out: AC50) and 22.4 µM (inconclusive) in [2]. Turning to `Cc1nn(C(C)C(=O)Nc2ccc(Cl)cn2)c(C)c1[N+](=O)[O-]` (stereo unspecified), in data set [3], the AC50 was 12.6 µM (inconclusive). `C=CCn1c(SCC(C)=O)nnc1-c1cc(-c2ccccc2)sc1N`: the IC50 in data set [4] is 29.1 µM (active).

For the molecule `N=C1[C@@H](O)[C@]2(I)c3ccccc3N3C(=N)[C@H](O)[C@@H]4c5ccccc5N1[C@@H]4[C@@H]32`, the AC50 is 6.31 µM (inconclusive) in data set [5] and 7.94 µM (inconclusive) in [2]. Consider `Cc1ncn(C23CC4CC(CC(C4)C2)C3)n1`, for which the EC50 in data set [6] was > 53 µM (inactive). The IC50 in data set [7] is > 47.1 µM (inactive).

Turning to `Cc1ccc(NNC(=O)c2ccno2)c(C)c1`, in data set [8], the AC50 was 3.48 µM (active). The EC50 in data set [9] is > 260 µM (inactive).

For `CCOC(=O)C1CCN(C(=O)c2n[nH]c(=O)c3ccccc23)CC1`, the EC50 in data set [6] was > 53 µM (inactive). Further, the IC50 in data set [7] is > 47.1 µM (inactive). Consider `COc1ccc(-c2csc(NC(=O)CN3C(=O)C4CC=CCC4C3=O)n2)cc1OC` (stereo unspecified), for which, in data set [6], the EC50 was > 53 µM (inactive). Besides, in data set [7], the IC50 is > 47.1 µM (inactive). In the case of `c1ccc(-n2c(-c3ccncc3)nnc2-c2ccco2)cc1`, in [6], the EC50 is > 53 µM (inactive). Also, the IC50 in data set [7] is > 47.1 µM (inactive). Turning to `Cc1cc(NC(=O)c2c([N+](=O)[O-])c(C)nn2C)no1`, the AC50 entry was “inconclusive” in data set [1] and 39.8 µM (inconclusive) in data set [3]. Consider `Cc1ccc(/N=N\c2c(O)ccc3cc(S(=O)(=O)O)ccc23)cc1`, for which the half-maximal activity concentration (AC50) in [3] is 5.01 µM (inconclusive); in [2], 3.16 µM (inconclusive).

Turning to `CCn1cc(C2=NOC(C(=O)Nc3ccccc3C(=O)OC)C2)c(C)n1` (stereo unspecified), the EC50 in data set [6] was > 53 µM (inactive). Further, the IC50 in data set [7] is > 47.1 µM (inactive). `Clc1cccc(Oc2cnc3ccccc3n2)c1`: the AC50 in data set [2] was 14.1 µM (inconclusive). Take `Nc1ccc(O)c([N+](=O)[O-])c1`: the IC50 in data set [4] is 42.8 µM (active). In the case of `CN1CCN(c2ncc3nc(-c4ccc(Cl)cc4)c(=O)n(CCC#N)c3n2)CC1`, the AC50 result in data set [1] was “inconclusive”; in [3], 15.8 µM (inconclusive). With `CCN1CCN(CC(c2ccccc2)c2ccccc2)CC1`, the IC50 in data set [4] is 197 µM (active). On to `CCOC(=O)Nc1ccc(C(=O)NCC2CCCO2)cc1` (stereo unspecified), for which, in [3], the AC50 is 39.8 µM (inconclusive). Consider `CCn1c(SCC(=O)NC(=O)NCc2ccco2)nnc1-c1cccs1`, for which the concentration at half-maximal activity (AC50) in [2] was 39.8 µM (inconclusive). Turning to `C=CCn1c(Cc2c[nH]c3ccccc23)nnc1SCC(=O)NCc1ccccc1`, the AC50 in data set [3] is 12.6 µM (inconclusive).

Consider `O=[N+]([O-])c1cc(O)c(O)c([N+](=O)[O-])c1` [3,5-DINITROCATECHOL (OR-486)], for which the AC50 in data set [3] is 39.8 µM (inconclusive). Turning to `N#Cc1ccc(CN2CC[C@@]3(CCCN(C(=O)Oc4ccccc4)C3)C2)cc1`, the AC50 in data set [3] was 12.6 µM (inconclusive). As for `NS(=O)(=O)c1ccc(NC(=O)CSc2nnc(COc3ccccc3Cl)n2C2CC2)cc1`, the EC50 in [6] was > 53 µM (inactive). Besides, in data set [7], the IC50 is > 47.1 µM (inactive).

For the molecule `O=C1C2C3C=CC(C3)C2C(=O)N1CCCO` (stereo unspecified), the EC50 in data set [6] is > 53 µM (inactive). Besides, the IC50 in data set [7] was > 47.1 µM (inactive).

In the case of `COc1ccccc1CNc1ccnc(-c2c(C)noc2C)n1`, the AC50 in data set [5] is 20 µM (inconclusive); in [2], 0.501 µM (inconclusive).

For `Cc1onc(-c2ccccc2Cl)c1C(=O)NCc1ccc(N2CCCC2=O)cc1`, the EC50 in [6] was > 53 µM (inactive). Also, in [7], the IC50 was > 47.1 µM (inactive). Take `O=C1/C(=N\O)Cc2ccccc21`: the values for the AC50 in data set [1] (read-out: AC50) and in data set [3] were 39.8 µM (inconclusive) and 14.1 µM (inconclusive), respectively. In the case of `O=[N+]([O-])c1ccc(Nc2nc(N/N=C\c3ccc4c(c3)OCO4)nc(N3CCCCC3)n2)cc1`, the AC50 in data set [3] and in data set [2] was 8.91 µM (inconclusive) each time. As for `Cc1ccc2[nH]c(Cc3ccc(N)cc3)nc2c1`, the AC50 in [2] was 14.1 µM (inconclusive).

For the molecule `COc1cc(=O)n2c(n1)SCCC2`, the AC50 in [2] was 31.6 µM (inconclusive). For `CCCS(=O)(=O)N1CCCC(C(=O)NCCCN2CCN(c3ccccc3F)CC2)C1` (stereo unspecified), the AC50 is 39.8 µM (inconclusive) in [1] (read-out: AC50) and 5.01 µM (inconclusive) in data set [2]. Consider `C(=C/c1ccccc1)/CN1CCN(CCOC(c2ccccc2)c2ccccc2)CC1`, for which the concentration at half-maximal activity (AC50) in data set [3] is 20 µM (inconclusive). Turning to `C[C@@H](CC(=O)O)[C@@H](N)C(=O)O`, the AC50 in data set [3] is 31.6 µM (inconclusive). Turning to `Nc1nnc(SCC(=O)Nc2cccc3ccccc23)s1`, the EC50 in data set [9] was > 260 µM (inactive). As for `Fc1cccc(NC(S)=NCc2ccc(Cl)cc2)c1`, the EC50 in data set [6] was > 53 µM (inactive). For the same molecule, the IC50 in data set [7] was > 47.1 µM (inactive). `CCN=C(S)NNC(=O)c1cccc(Br)c1`: the values for the AC50 in data set [1] (read-out: AC50) and in data set [3] were 5.62 µM (inconclusive) and 17.8 µM (inconclusive), respectively. As to `Cn1c(=O)c(C(=O)NCc2ccccc2Cl)c(O)c2ccccc21`, the EC50 in data set [6] is > 53 µM (inactive). In addition, the IC50 in data set [7] is > 47.1 µM (inactive). On to `Cc1cc(C)c(S(=O)(=O)Nc2cccc(/C=C/C(=O)O)c2)c(C)c1`, for which the EC50 in data set [9] was > 260 µM (inactive). Take `N#C/C(=C\c1ccc(Cl)cc1)c1nc2ccccc2o1`: in data set [9], the EC50 was > 260 µM (inactive).

Turning to `COC(=O)CC1SC(=O)NC1=Nc1ccc(OC)cc1` (stereo unspecified), the EC50 in data set [6] was > 53 µM (inactive). Further, the IC50 in data set [7] is > 47.1 µM (inactive).
